The results in this text go back to patent US20120225062A1 (priority 2011, published 2012).

In assay [1] the test system is KMS11 (human myeloma cell line). The assay can be described thus: Cell Proliferation Assay (CellTiter-Glo, 3 days). In kind it is cell-based. The note with it: KMS-11, 72 h, KMS11-luc cells. An outline of the steps: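 KMS11 myeloma cells, 2000 per well in IMDM with 10% FBS, exposed to compound for 3 days at 37° C. Viability read by CellTiter-Glo luminescence; EC50 derived.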
For orientation: Cellular ATP, detected with luciferase, serves as a proxy for viable cell number.

The target of a further assay is Pim 1 (Homo sapiens, UniProt P11309). The assay can be described thus: Pim 1 AlphaScreen assay (high ATP). (In general: In Alpha technology, singlet oxygen from a donor bead excites a nearby acceptor bead.)
Chain of Pim 1 (P11309 whole entry): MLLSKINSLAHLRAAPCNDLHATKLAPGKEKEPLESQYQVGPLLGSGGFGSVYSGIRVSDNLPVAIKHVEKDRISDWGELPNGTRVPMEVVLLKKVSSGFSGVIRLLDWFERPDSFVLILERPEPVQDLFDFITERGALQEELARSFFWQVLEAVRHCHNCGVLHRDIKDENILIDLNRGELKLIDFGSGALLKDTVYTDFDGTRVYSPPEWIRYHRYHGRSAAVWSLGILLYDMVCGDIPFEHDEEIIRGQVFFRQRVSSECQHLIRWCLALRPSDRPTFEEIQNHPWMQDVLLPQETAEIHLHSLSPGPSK
The next assay has as its target Pim 2 (Homo sapiens, UniProt Q9P1W9). The assay can be described thus: Pim 2 AlphaScreen assay (high ATP).
The target of another assay is Pim 3 (Homo sapiens, UniProt Q86V86). Put plainly: Pim 3 AlphaScreen assay (high ATP).

Each structure is given as a SMILES string.

Chain of Pim 2 (Q9P1W9 whole entry): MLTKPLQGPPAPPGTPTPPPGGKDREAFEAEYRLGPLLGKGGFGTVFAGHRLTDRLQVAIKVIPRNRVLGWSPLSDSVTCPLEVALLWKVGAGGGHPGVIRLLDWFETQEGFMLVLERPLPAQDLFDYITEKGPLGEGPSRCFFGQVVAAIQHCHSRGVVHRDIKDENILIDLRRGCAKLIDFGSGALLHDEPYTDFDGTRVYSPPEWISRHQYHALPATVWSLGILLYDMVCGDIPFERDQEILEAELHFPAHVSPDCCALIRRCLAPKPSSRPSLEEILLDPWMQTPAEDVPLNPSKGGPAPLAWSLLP
Description for Pim 3: The activity of Pim 1, Pim 2, & Pim 3 is measured using a homogeneous bead based system quantifying the amount of phosphorylated peptide substrate resulting from kinase-catalyzed phosphoryl transfer to a peptide substrate. Compounds to be tested are dissolved in 100% DMSO and directly distributed to a white 384-well plate at 0.25 μl per well. […] This is followed by the addition of 5 μl/well of Pim 1, Pim 2 or Pim 3 kinase in assay buffer (concentrations described below). Final assay concentrations (described below) are in 2.5% DMSO. The reactions are performed for ˜2 hours, then stopped by the addition of 10 μl of 0.75 μg/ml anti-phospho Ser/Thr antibody (Cell Signaling), 10 μg/ml Protein A AlphaScreen beads (Perkin Elmer), and 10 μg/ml streptavidin coated AlphaScreen beads in stop/detection buffer (50 mM EDTA, 95 mM Tris, pH=7.5, 0.01% Tween-20). The stopped reactions are incubated overnight in the dark. The phosphorylated peptide is detected via an oxygen anion initiated chemiluminescence/fluorescence cascade using the Envision plate reader (Perkin Elmer).

As a reminder, the EC50 is the concentration at which the effect is half-maximal. For orientation: IC50 means the concentration that gives 50% inhibition. A lower IC50 goes with greater potency. Take `C[C@H]1C[C@@H](c2ccncc2NC(=O)c2ccc(F)c(-c3c(F)cc(N4CCOCC4)cc3F)n2)C[C@@H](N)[C@@H]1O` [Example 169, N-(4-((1R,3R,4R,5S)-3-amino-4-hydroxy-5-methylcyclohexyl)pyridin-3-yl)-6-(2,6-difluoro-4-morpholinophenyl)-5-fluoropicolinamide]: the response in assay [1] was half-maximal at 34 nM (EC50). Besides, the values for the IC50 against Pim 1, on Pim 2 and against Pim 3 were 0.01 nM, 1.16 nM and 0.38 nM, respectively.

On to `C[C@@H]1C[C@H](N)C[C@H](c2ccncc2NC(=O)c2ccc(F)c(-c3c(F)cc(C4(C#N)CCOCC4)cc3F)n2)C1` [Example 170, N-(4-((1R,3S,5S)-3-amino-5-methylcyclohexyl)pyridin-3-yl)-6-(4-(4-cyanotetrahydro-2H-pyran-4-yl)-2,6-difluorophenyl)-5-fluoropicolinamide], for which the response in assay [1] was half-maximal at 84 nM (EC50). The IC50 on Pim 1 stood at 0.03 nM; at Pim 2, 2.83 nM; on Pim 3 it was 4.54 nM.

For `N#CC1(c2cc(F)c(-c3nc(C(=O)Nc4cnccc4[C@@H]4CCC[C@H](N)C4)ccc3F)c(F)c2)CCOCC1` [Example 172, N-(4-((1R,3S)-3-aminocyclohexyl)pyridin-3-yl)-6-(4-(4-cyanotetrahydro-2H-pyran-4-yl)-2,6-difluorophenyl)-5-fluoropicolinamide], a half-maximal effect in assay [1] (EC50) was put at 403 nM. The 50% inhibitory concentration (IC50) amounted to 0.08 nM on Pim 1, 29.7 nM against Pim 2 and 19.6 nM on Pim 3.

`Cc1noc(C)c1-c1cc(F)c(-c2nc(C(=O)Nc3cnccc3[C@H]3C[C@@H](N)[C@H](O)[C@@H](C)C3)ccc2F)c(F)c1` [Example 173, N-(4-((1R,3R,4R,5S)-3-amino-4-hydroxy-5-methylcyclohexyl)pyridin-3-yl)-6-(4-(3,5-dimethylisoxazol-4-yl)-2,6-difluorophenyl)-5-fluoropicolinamide] had a half-maximal effective concentration (EC50) in assay [1] of 2440 nM. The IC50 was found to be 0.26 nM on Pim 1, 58.5 nM on Pim 2 and 29.5 nM at Pim 3.

Turning to `Cc1noc(C)c1-c1cc(F)c(-c2nc(C(=O)Nc3cnccc3[C@@H]3C[C@H](C)C[C@H](N)C3)ccc2F)c(F)c1` [Example 174, N-(4-((1R,3S,5S)-3-amino-5-methylcyclohexyl)pyridin-3-yl)-6-(4-(3,5-dimethylisoxazol-4-yl)-2,6-difluorophenyl)-5-fluoropicolinamide], in assay [1], the 50% effective concentration (EC50) was 1020 nM. Also, the half-maximal inhibitory concentration (IC50) on Pim 1 amounted to 0.08 nM; against Pim 2, 30 nM; against Pim 3, 10.1 nM.

Consider `COCCOc1cc(F)c(-c2nc(C(=O)Nc3cnccc3[C@H]3C[C@@H](N)C[C@@H](C(C)C)C3)ccc2F)c(F)c1` [Example 175, N-(4-((1R,3S,5S)-3-amino-5-isopropylcyclohexyl)pyridin-3-yl)-6-(2,6-difluoro-4-(2-methoxyethoxy)phenyl)-5-fluoropicolinamide], for which the EC50 in assay [1] is 176 nM. For the same compound, the figures for the IC50 at Pim 1, against Pim 2 and on Pim 3 were 0.01 nM, 0.98 nM and 0.46 nM, respectively.

In assay [1], `COCCCOc1cc(F)c(-c2nc(C(=O)Nc3cnccc3[C@@H]3C[C@H](C)C[C@H](N)C3)ccc2F)c(F)c1` [Example 176, N-(4-((1R,3S,5S)-3-amino-5-methylcyclohexyl)pyridin-3-yl)-6-(2,6-difluoro-4-(3-methoxypropoxy)phenyl)-5-fluoropicolinamide] had an EC50 of 182 nM. The concentration for half-maximal inhibition (IC50) on Pim 1 came to 0.01 nM; on Pim 2 it was 1.62 nM; at Pim 3, 0.48 nM.

With `C[C@@H]1C[C@H](N)C[C@H](c2ccncc2NC(=O)c2ccc(F)c(-c3c(F)cc(OCC4CCOCC4)cc3F)n2)C1` [Example 177, N-(4-((1R,3S,5S)-3-amino-5-methylcyclohexyl)pyridin-3-yl)-6-(2,6-difluoro-4-((tetrahydro-2H-pyran-4-yl)methoxy)phenyl)-5-fluoropicolinamide], the midpoint of the response in assay [1], the EC50, lay at 381 nM. Moreover, the IC50 at Pim 1 came to 0.02 nM; against Pim 2, 1.33 nM; on Pim 3, 0.78 nM.

The compound `C[C@H]1C[C@@H](c2ccncc2NC(=O)c2ccc(F)c(-c3c(F)cc(OCC4CCOCC4)cc3F)n2)C[C@@H](N)[C@@H]1O` [Example 178, N-(4-((1R,3R,4R,5S)-3-amino-4-hydroxy-5-methylcyclohexyl)pyridin-3-yl)-6-(2,6-difluoro-4-((tetrahydro-2H-pyran-4-yl)methoxy)phenyl)-5-fluoropicolinamide] came in with an EC50 in assay [1] of 395 nM. Also, the values for the concentration for half-maximal inhibition (IC50) against Pim 1, against Pim 2 and against Pim 3 were 0.03 nM, 1.42 nM and 0.84 nM, respectively.

`C[C@@H]1C[C@H](N)C[C@H](c2ccncc2NC(=O)c2ccc(F)c(-c3c(F)cc4c(c3F)OCC4)n2)C1` [Example 179, N-(4-((1R,3S,5S)-3-amino-5-methylcyclohexyl)pyridin-3-yl)-6-(5,7-difluoro-2,3-dihydrobenzofuran-6-yl)-5-fluoropicolinamide] showed a concentration giving a half-maximal response (EC50) in assay [1] of 77 nM. Further, the IC50 against Pim 1 was found to be 0.01 nM; at Pim 2, 0.51 nM; at Pim 3, 0.3 nM.

`C[C@H]1C[C@@H](c2ccncc2NC(=O)c2ccc(F)c(-c3c(F)cc4c(c3F)OCC4)n2)C[C@@H](N)[C@@H]1O` [Example 180, N-(4-((1R,3R,4R,5S)-3-amino-4-hydroxy-5-methylcyclohexyl)pyridin-3-yl)-6-(5,7-difluoro-2,3-dihydrobenzofuran-6-yl)-5-fluoropicolinamide] showed a concentration for a half-maximal effect (EC50) in assay [1] of 145 nM. Further, the values for the 50% inhibitory concentration (IC50) on Pim 1, on Pim 2 and at Pim 3 were 0.02 nM, 0.92 nM and 0.58 nM, respectively.

For `C[C@@H]1C[C@H](N)C[C@H](c2ccncc2NC(=O)c2ccc(F)c(-c3c(F)cc(C(C)(C)C(=O)O)cc3F)n2)C1` [Example 181, 2-(4-(6-(4-((1R,3S,5S)-3-amino-5-methylcyclohexyl)pyridin-3-ylcarbamoyl)-3-fluoropyridin-2-yl)-3,5-difluorophenyl)-2-methylpropanoic acid], in assay [1], the EC50 is greater than 10000 nM. Also, the IC50 against Pim 1 was 0.45 nM; against Pim 2 it was 4.75 nM; against Pim 3, 20.9 nM.

`COCCCOc1cc(F)c(-c2nc(C(=O)Nc3cnccc3[C@H]3C[C@@H](N)[C@H](O)[C@@H](C)C3)ccc2F)c(F)c1` [Example 184, N-(4-((1R,3R,4R,5S)-3-amino-4-hydroxy-5-methylcyclohexyl)pyridin-3-yl)-6-(2,6-difluoro-4-(3-methoxypropoxy)phenyl)-5-fluoropicolinamide] came in with an EC50 in assay [1] of 161 nM. Further, the values for the IC50 on Pim 1, at Pim 2 and on Pim 3 were 0.03 nM, 3.54 nM and 0.93 nM, respectively.

In assay [1], `C[C@@H]1C[C@H](N)C[C@H](c2ccncc2NC(=O)c2ccc(F)c(-c3c(F)cc(OCC4(C#N)CCOCC4)cc3F)n2)C1` [Example 185, N-(4-((1R,3S,5S)-3-amino-5-methylcyclohexyl)pyridin-3-yl)-6-(4-((4-cyanotetrahydro-2H-pyran-4-yl)methoxy)-2,6-difluorophenyl)-5-fluoropicolinamide] registered a 50% effective concentration (EC50) of 632 nM. Moreover, the IC50 against Pim 1 was 0.02 nM; against Pim 2 it was 4.04 nM; against Pim 3 it was 2.44 nM.

In turn, `C[C@H]1C[C@@H](c2ccncc2NC(=O)c2ccc(F)c(-c3c(F)cc(OCC4(C#N)CCOCC4)cc3F)n2)C[C@@H](N)[C@@H]1O` [Example 186, N-(4-((1R,3R,4R,5S)-3-amino-4-hydroxy-5-methylcyclohexyl)pyridin-3-yl)-6-(4-((4-cyanotetrahydro-2H-pyran-4-yl)methoxy)-2,6-difluorophenyl)-5-fluoropicolinamide] registered an EC50 in assay [1] of 527 nM. Besides, the IC50 on Pim 1 amounted to 0.04 nM; against Pim 2, 3 nM; at Pim 3 it was 1.32 nM.

Compound `C[C@@H]1C[C@H](N)C[C@H](c2ccncc2NC(=O)c2cccc(-c3c(F)cc(OC4CCOCC4)cc3F)n2)C1` [Example 187, N-(4-((1R,3S,5S)-3-amino-5-methylcyclohexyl)pyridin-3-yl)-6-(2,6-difluoro-4-(tetrahydro-2H-pyran-4-yloxy)phenyl)picolinamide] showed an EC50 in assay [1] of 210 nM. Further, the figures for the half-maximal inhibitory concentration (IC50) at Pim 1, against Pim 2 and against Pim 3 were 0.03 nM, 2.47 nM and 1.28 nM, respectively.

In assay [1], `COCCOc1cc(F)c(-c2cccc(C(=O)Nc3cnccc3[C@@H]3C[C@H](C)C[C@H](N)C3)n2)c(F)c1` [Example 188, N-(4-((1R,3S,5S)-3-amino-5-methylcyclohexyl)pyridin-3-yl)-6-(2,6-difluoro-4-(2-methoxyethoxy)phenyl)picolinamide] gave an EC50 of 478 nM. For the same compound, the IC50 against Pim 1 came to 0.07 nM; against Pim 2, 3.96 nM; against Pim 3, 1.96 nM.

In assay [1], `CC(C)Oc1cc(F)c(-c2cccc(C(=O)Nc3cnccc3[C@H]3C[C@@H](N)[C@H](O)[C@@H](C)C3)n2)c(F)c1` [Example 189, N-(4-((1R,3R,4R,5S)-3-amino-4-hydroxy-5-methylcyclohexyl)pyridin-3-yl)-6-(2,6-difluoro-4-isopropoxyphenyl)picolinamide] displayed a concentration giving a half-maximal response (EC50) of 470 nM. The IC50 was 0.04 nM against Pim 1, 2.67 nM at Pim 2 and 0.96 nM against Pim 3.

As for `C[C@@H]1C[C@H](N)C[C@H](c2ccncc2NC(=O)c2cccc(-c3c(F)cc(C4(F)CCOCC4)cc3F)n2)C1` [Example 190, N-(4-((1R,3S,5S)-3-amino-5-methylcyclohexyl)pyridin-3-yl)-6-(2,6-difluoro-4-(4-fluorotetrahydro-2H-pyran-4-yl)phenyl)picolinamide], in assay [1], the EC50 was 402 nM. Moreover, the IC50 at Pim 1 was 0.05 nM; at Pim 2, 3.26 nM; against Pim 3, 2.9 nM.
